{
  "source": "ChEMBL document CHEMBL1127905",
  "about": "“Design and synthesis of a prototype model antagonist of tachykinin NK-2 receptor” (Bioorg Med Chem Lett, 1994)",
  "biological_target": "T1, Substance-K receptor (Homo sapiens) (UniProt P21452)",
  "T1 sequence (whole entry)": "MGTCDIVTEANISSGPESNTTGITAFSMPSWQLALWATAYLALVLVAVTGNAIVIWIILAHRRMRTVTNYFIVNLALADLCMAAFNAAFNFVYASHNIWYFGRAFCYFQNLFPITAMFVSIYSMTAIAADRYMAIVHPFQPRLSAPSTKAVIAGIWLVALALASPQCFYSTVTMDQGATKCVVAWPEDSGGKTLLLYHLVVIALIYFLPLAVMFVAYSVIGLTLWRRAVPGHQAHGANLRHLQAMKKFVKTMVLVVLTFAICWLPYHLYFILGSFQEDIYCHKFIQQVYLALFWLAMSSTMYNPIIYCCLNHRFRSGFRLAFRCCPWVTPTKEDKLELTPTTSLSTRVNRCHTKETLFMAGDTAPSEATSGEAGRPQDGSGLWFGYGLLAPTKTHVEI",
  "test": "Compound was evaluated for binding affinity to human recombinant Tachykinin receptor 2",
  "data": [
    {"smiles": "O=C(Cc1c[nH]c2ccccc12)N[C@@H]1C(=O)N2[C@H](CC[C@H]2C(=O)NCc2ccccc2)C[C@H]1Cc1ccccc1", "values": [
      {"measurement": "Activity", "value": 3, "unit": "µM"}
    ]}
  ]
}
